Drawing on BindingDB's records for doi:10.1021/acs.jmedchem.8b00435 (Shanghaitech University, 2018), this text covers EC50 for four molecules.

The nature of the experiment: Agonist activity at adenosine A3 receptor (unknown origin) expressed in serum starved CHO cells assessed as increase in cell survival after 24 hrs by propidium iodide staining-based assay.

Usually EC50 stands for the concentration that produces a half-maximal response. Regarding `CNC(=O)[C@@]12C[C@@H]1[C@@H](n1cnc3c(NCc4cccc(Cl)c4)nc(C#Cc4ccc5ccc6cccc7ccc4c5c67)nc31)[C@H](O)[C@@H]2O`, the EC50 worked out at 13 nM.

In the case of `CNC(=O)[C@@]12C[C@@H]1[C@@H](n1cnc3c(NCc4cccc(Cl)c4)nc(C#Cc4ccccc4)nc31)[C@H](O)[C@@H]2O`, the EC50 is 0.2 nM.

Turning to `CNC(=O)[C@@]12C[C@@H]1[C@@H](n1cnc3c(NCc4cccc(Cl)c4)nc(C#Cc4ccc(-c5ccccc5)cc4)nc31)[C@H](O)[C@@H]2O`, the EC50 was 0.251 nM.

With `CNC(=O)[C@@]12C[C@@H]1[C@@H](n1cnc3c(NCc4cccc(Cl)c4)nc(C#Cc4cc5cccc6ccc7cccc4c7c65)nc31)[C@H](O)[C@@H]2O`, the EC50 was 20 nM.
